What all share (format): in vivo
For one assay, the system named is R. rubescens. Put plainly: Mycorrhizal colonization of Ponderosa pine seedlings by Rhizopogon (root tip tally). The note with it: potassium formononetinate 60 mg/L with R. rubescens spores vs spores alone. The protocol:
(§1) Ponderosa pine seeds were sown in a soilless mix (50:50 peat:vermiculite) in 2 cm^3 cells in STRYOBLOCK™ containers (Beaver Plastics, Corvallis, Oreg.) inside the greenhouse at the J. Herbert Stone Nursery in Central Point, Oreg. Eight weeks after germination, all emerging ponderosa pine seedlings were inoculated with 100,000 spores each of the ectomycorrhizal fungus R. rubescens using a liquid suspension applied via a traveling irrigation boom. Liquid spore suspension was prepared by maceration of R. rubescens sporocarps in distilled water for 10 min, followed by serial dilution with distilled water. Spore concentrations were determined using a hemacytometer. Soluble fertilizer (250 ppm N, 60 ppm P and 158 ppm K plus micronutrients) was applied with irrigation for optimum growth. Temperatures were held between 65° F. and 75° F. in the greenhouse. The seedlings were hardened off about six months after sowing by reducing the amount of irrigation water and fertilizer in it (to 50 ppm N, 31 ppm P and 150 ppm K plus micronutrients). No pesticides were used on the crop during this period. Ponderosa pine seedlings were then each inoculated again with 100,000 spores of R. rubescens using the same inoculation procedure. […]
(§2) All trials were conducted in a randomized complete block design. […] Means comparisons were calculated using Fisher's LSD (least significant difference). […]

Another assay deals with R. parksii. Put plainly: Mycorrhizal colonization of Douglas-fir roots by Rhizopogon (root tip tally).
Description: (§3) Douglas-fir seeds were sown in 2 cm^3 in cells in Stryoblock™ containers filled with soilless mix (50:50 peat:vermiculite) in the greenhouse at the J. Herbert Stone Nursery in Central Point, Oreg. Soluble fertilizer applications, temperatures, and hardening off procedure were the same as those described for Ponderosa pine above. No pesticides were used on the crop during this period, and no mycorrhizal inoculum was applied prior to applications of treatments.
(§4) Eight months after sowing, fourteen Douglas-fir seedlings were randomly sampled (2 or 3 from 6 trays) to determine colonization by the mycorrhizal fungus R. parksii. No colonization by R. parksii was present at this time. […]
as §2

The test system of assay [1] is Ponderosa pine seedlings. Put plainly: Caliper diameter of Ponderosa pine seedlings. As to conditions: potassium formononetinate 60 mg/L added to R. rubescens inoculation. The protocol:
as §1, with “greenhouse.” for “greenhouse. The seedlings were hardened off about six months after sowing by reducing the amount of irrigation water and fertilizer in it (to 50 ppm N, 31 ppm P and 150 ppm K plus micronutrients). No pesticides were used on the crop during this period. Ponderosa pine seedlings were then each inoculated again with 100,000 spores of R. rubescens using the same inoculation procedure.”
(§5) The diameter of all seedlings in all of the treatments was then measured with a caliper. […] Samples were analyzed for total nitrogen and phosphorus (Kjeldahl digest with ammonia and orthophosphate read on an auto-analyzer), and extractable potassium (microwave digestion) with inductively couples argon plasma spectrometer (ICPMS).
as §2

In assay [2] the test system is Douglas-fir seedlings. Description: Caliper diameter of Douglas-fir seedlings.
Description: as §3, §4, §5, §2

For assay [3], the system named is Ponderosa pine seedlings. Description: Foliar nutrient analysis of Ponderosa pine needles. As to conditions: 60 mg/L, vs seedlings treated with R. rubescens alone. The procedure:
as §1, with “greenhouse.” for “greenhouse. The seedlings were hardened off about six months after sowing by reducing the amount of irrigation water and fertilizer in it (to 50 ppm N, 31 ppm P and 150 ppm K plus micronutrients). No pesticides were used on the crop during this period. Ponderosa pine seedlings were then each inoculated again with 100,000 spores of R. rubescens using the same inoculation procedure.”
as §5, §2

Assay [4] has as its system Douglas-fir seedlings. Put plainly: Foliar nutrient analysis of Douglas-fir needles.
Description: as §3
Eight months after sowing, fourteen Douglas-fir seedlings were randomly sampled (2 or 3 from 6 trays) to determine colonization by the mycorrhizal fungus R. parksii. No colonization by R. parksii was present at this time. The treatments applied to three trays of 20 seedlings each were a control with no potassium formononetinate or mycorrhizal inoculation (C), potassium formononetinate only at 20 mg/L of soilless mix (M-20), mycorrhizal inoculation only at 100,000 R. parksii spores/cavity applied with a graduated pipette (R-100), mycorrhizal inoculation with R. parksii at 100,000 spores per cavity plus potassium formononetinate at 20 mg/L of soilless mix (0.11 per 60 seedlings) (M-20+R-100), mycorrhizal inoculation with R. parksii at 100,000 spores per cavity plus potassium formononetinate at 60 mg/L of soilless mix (0.33 per 60 seedlings) (M-60+R-100), and mycorrhizal inoculation with R. parksii at 50,000 spores cavity plus potassium formononetinate at 20 mg/L of soilless mix (M-20+R-50). Potassium formononetinate was provided by VAMTech L.L.C., Lansing, Mich.
The diameter of all seedlings in all of the treatments was then measured with a caliper. Needle samples for Ponderosa pine and Douglas-fir were collected from 4 randomly selected seedlings in each treatment for foliar analysis. Samples were analyzed for total nitrogen and phosphorus (Kjeldahl digest with ammonia and orthophosphate read on an auto-analyzer), and extractable potassium (microwave digestion) with inductively couples argon plasma spectrometer (ICPMS).
All trials were conducted in a randomized complete block design. Analyses of variance (ANOVA) were performed separately for seedling caliper, nutrient content, and mycorrhizal colonization (Steel and Torrie 1980). Means comparisons were calculated using Fisher's LSD (least significant difference). Residuals from the performed ANOVA's were examined using normal probability plots, tests that the residuals come from normal distributions and plots of residuals versus predicted values. Before analysis, mycorrhizal colonization data as logarithmically transformed to compensate for log-normally distributed values (Steel and Torrie 1980).

[5] abbreviates: M = potassium formononetinate mg/L, R = R. parksii spores x1000 per cavity.
Where [6] appears, read: R. parksii and potassium formononetinate, over the untreated control, but not over R. parksii alone.

Entries after “also recorded” stand apart in the source; their conditions may differ.

For `COc1ccc(-c2coc3cc([O-])ccc3c2=O)cc1.[K+]` [potassium formononetinate, potassium salt of 7-hydroxy, 4′-methoxy isoflavone], the “root colonization by Rhizopogon, Ponderosa pine (effect in words)” value in the assay on R. rubescens is reported as “significantly increased”. For the same compound, the “root colonization by Rhizopogon, Douglas-fir (effect in words)” value in the assay on R. parksii (potassium formononetinate 60 mg/L with R. parksii spores) is on record as “significantly increased”. Besides, the “Mycorrhizal colonization of Douglas-fir roots by R. parksii” value with R. parksii (thirteen months after sowing, M-20/M-60 = potassium formononetinate 20/60 mg/L of soilless mix, R-100/R-50 = 100,000/50,000 R. parksii spores per cavity) is 0%. The “caliper diameter, Ponderosa pine (effect in words)” value in the assay on Ponderosa pine seedlings [1] is reported as “not significantly increased; also recorded: not significantly affected”. For the same compound, the “caliper diameter, Douglas-fir” value with Douglas-fir seedlings [2] (thirteen months after sowing, M = potassium formononetinate mg/L, R = R. parksii spores x1000 per cavity) was found to be 0.2 cm. In the assay with Douglas-fir seedlings [2] (vs untreated control, R. parksii alone or plus potassium formononetinate), the “caliper size, Douglas-fir (effect in words)” value is recorded as “increased caliper size over the control”. The “nitrogen content, Ponderosa pine (effect in words)” value in the assay with Ponderosa pine seedlings [3] was “significantly increased”. In addition, the “potassium content, Douglas-fir (effect in words)” value in the assay on Douglas-fir seedlings [4] (60 mg/L plus R. parksii, vs untreated plants, R. parksii alone and any other treatment) was “significantly higher”. Moreover, in the assay with Douglas-fir seedlings [4] (setting [5]), the “foliar nitrogen content, Douglas-fir needles” value is reported as 1.29% and the “foliar phosphorous content, Douglas-fir needles” value turned out to be 0.15%. Besides, in the assay with Douglas-fir seedlings [4] (setting [6]), the “nitrogen content, Douglas-fir (effect in words)” value was “significantly increased” and the “phosphorus content, Douglas-fir (effect in words)” value was “significantly increased”.

The values above are taken from US7000348B2, “Method and composition for tree root colonization” (Vamtech, LLC, priority 2003, dated 2006).
